Results taken from ChEMBL document CHEMBL5226326, “Discovery of 1-Benzoyl 4-Phenoxypiperidines as Small-Molecule Inhibitors of the β-Catenin/B-Cell Lymphoma 9 Protein-Protein Interaction” (J Med Chem, 2021).

Experiments:
[1] = biological target: T1, beta-catenin-B-cell lymphoma 9 protein complex (Homo sapiens, UniProt P35222); test: Inhibition of full length beta-catenin (1 to 781 residues) (unknown origin) expressed in Escherichia coli BL21 (DE3)/N-terminal biotinylated human BCL9 HD2 (350 to 375 residues) protein-protein interaction incubated for 1 hr by Alphascreen assay
T1 sequence (P35222 whole entry): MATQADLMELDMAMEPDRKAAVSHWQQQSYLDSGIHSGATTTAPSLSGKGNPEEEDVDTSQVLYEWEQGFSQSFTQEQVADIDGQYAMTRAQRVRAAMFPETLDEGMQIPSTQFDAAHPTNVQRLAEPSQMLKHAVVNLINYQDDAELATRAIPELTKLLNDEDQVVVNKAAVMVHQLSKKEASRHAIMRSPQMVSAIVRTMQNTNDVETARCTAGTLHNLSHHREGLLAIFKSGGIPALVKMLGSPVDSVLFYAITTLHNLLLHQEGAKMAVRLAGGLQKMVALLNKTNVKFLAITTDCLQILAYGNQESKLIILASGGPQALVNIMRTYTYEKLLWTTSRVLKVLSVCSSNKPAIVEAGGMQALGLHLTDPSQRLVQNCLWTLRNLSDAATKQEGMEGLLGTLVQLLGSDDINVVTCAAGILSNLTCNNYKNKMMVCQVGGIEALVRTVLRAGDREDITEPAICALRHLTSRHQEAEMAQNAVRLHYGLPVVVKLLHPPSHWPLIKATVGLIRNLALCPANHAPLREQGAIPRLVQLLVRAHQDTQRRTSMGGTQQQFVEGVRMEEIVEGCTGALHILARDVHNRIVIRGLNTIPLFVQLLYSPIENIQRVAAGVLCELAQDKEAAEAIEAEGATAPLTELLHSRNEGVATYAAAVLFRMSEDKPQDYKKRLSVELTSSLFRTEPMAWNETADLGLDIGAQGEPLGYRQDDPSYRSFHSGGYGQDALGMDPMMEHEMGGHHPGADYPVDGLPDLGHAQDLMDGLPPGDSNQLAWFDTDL
T1 sequence (O00512 whole entry): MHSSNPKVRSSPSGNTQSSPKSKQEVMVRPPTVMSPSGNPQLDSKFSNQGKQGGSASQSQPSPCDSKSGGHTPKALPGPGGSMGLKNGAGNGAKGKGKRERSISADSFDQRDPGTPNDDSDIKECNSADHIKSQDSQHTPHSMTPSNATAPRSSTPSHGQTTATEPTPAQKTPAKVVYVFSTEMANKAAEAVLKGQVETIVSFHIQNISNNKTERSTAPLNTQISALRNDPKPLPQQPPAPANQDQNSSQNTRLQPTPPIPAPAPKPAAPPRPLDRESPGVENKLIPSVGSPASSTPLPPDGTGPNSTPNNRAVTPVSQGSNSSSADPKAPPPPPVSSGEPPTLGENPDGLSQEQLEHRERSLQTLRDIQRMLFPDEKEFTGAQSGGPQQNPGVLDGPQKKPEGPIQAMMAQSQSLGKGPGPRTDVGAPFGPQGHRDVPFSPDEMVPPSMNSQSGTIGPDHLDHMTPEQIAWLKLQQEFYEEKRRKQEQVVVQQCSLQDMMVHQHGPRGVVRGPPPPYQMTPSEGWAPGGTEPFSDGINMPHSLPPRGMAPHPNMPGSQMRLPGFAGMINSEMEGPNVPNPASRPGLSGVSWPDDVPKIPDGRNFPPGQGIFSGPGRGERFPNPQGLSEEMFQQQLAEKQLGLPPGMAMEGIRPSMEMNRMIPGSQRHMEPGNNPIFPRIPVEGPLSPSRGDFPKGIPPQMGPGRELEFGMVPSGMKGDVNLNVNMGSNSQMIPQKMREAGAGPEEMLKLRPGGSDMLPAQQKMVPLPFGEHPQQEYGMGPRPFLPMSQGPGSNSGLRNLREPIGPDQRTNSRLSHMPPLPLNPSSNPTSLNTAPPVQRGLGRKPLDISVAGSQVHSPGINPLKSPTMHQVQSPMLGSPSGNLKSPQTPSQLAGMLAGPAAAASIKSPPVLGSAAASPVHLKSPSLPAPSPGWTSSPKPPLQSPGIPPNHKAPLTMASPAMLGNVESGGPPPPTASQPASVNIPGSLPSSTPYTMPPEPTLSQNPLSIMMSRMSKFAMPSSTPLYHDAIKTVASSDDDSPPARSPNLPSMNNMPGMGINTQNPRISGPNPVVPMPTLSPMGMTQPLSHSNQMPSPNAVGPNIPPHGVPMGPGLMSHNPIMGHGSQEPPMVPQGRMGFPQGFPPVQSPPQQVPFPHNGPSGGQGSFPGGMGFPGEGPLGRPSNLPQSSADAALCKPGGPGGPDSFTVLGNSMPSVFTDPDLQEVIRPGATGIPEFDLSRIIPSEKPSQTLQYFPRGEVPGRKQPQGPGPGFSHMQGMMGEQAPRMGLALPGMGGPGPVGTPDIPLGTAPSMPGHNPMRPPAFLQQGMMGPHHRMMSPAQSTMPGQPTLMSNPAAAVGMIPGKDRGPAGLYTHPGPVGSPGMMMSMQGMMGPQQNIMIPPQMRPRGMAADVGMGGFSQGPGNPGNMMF

[2] = biological target: T1, beta-catenin-B-cell lymphoma 9 protein complex; test: Inhibition of full length beta-catenin (1 to 781 residues) (unknown origin) expressed in Escherichia coli BL21 (DE3)/N-terminal biotinylated human BCL9 HD2 (350 to 375 residues) protein-protein interaction assessed as inhibition constant incubated for 1 hr by Alphascreen assay

Row | SMILES | IC50 [1] | Ki [2]
1 | CC(C)(C)C(=O)N1CCC(c2cc(C(=O)N3CCC(Oc4cc(F)cc(N5CCNCC5)c4)CC3)ccc2O[C@H]2CCNC2)CC1 | > 100 µM | > 84 µM
2 | O=C(c1cc(F)cc(N2CCNCC2)c1)N1CCN(C(=O)c2ccc(O[C@@H]3CCNC3)c(C3CCCCC3)c2)CC1 | ≥ 60 µM | 50 µM
3 | NCc1cn(Cc2cc(F)cc(OC3CCN(C(=O)c4ccc(O[C@H]5CCNC5)c(C5CCCCC5)c4)CC3)c2)nn1 | > 100 µM | > 84 µM
4 | CC(C)(C)c1ccc(-c2cc(C(=O)N3CCC(Oc4cc(F)cc(N5CCNCC5)c4)CC3)ccc2O[C@H]2CCNC2)cc1 | 11 µM | 10 µM
5 | O=C(c1ccc(O[C@H]2CCNC2)c(C2CCCCC2)c1)N1CCC(Oc2cc(F)cc(N3CCC4(CC3)CNC4)c2)CC1 | > 100 µM | > 84 µM
6 | CC(C)(C)C1CCC(c2cc(C(=O)N3CCC(Oc4ccc(F)c(N5CCNCC5)c4)CC3)ccc2O[C@H]2CCNC2)CC1 (mixture of isomers) | 6.7 µM | 5.6 µM
7 | CC(C)(C)C1CCC(c2cc(C(=O)N3CCC(Oc4cc(N5CCNCC5)ccc4C(=O)O)CC3)ccc2O[C@H]2CCNC2)CC1 (stereo partly specified) | > 100 µM | > 84 µM
8 | O=C(c1ccc(O[C@H]2CCNC2)c(-c2ccc3cn[nH]c3c2)c1)N1CCC(Oc2cc(F)cc(N3CCNCC3)c2)CC1 | 11 µM | 10 µM
9 | CC(C)(C)C1CCC(c2cc(C(=O)N3CCC(Oc4cc(N5CCNCC5)ccc4F)CC3)ccc2O[C@H]2CCNC2)CC1 (mixture of isomers) | 6.2 µM | 5 µM
10 | CC(C)(CN)C(=O)NCc1cc(F)cc(OC2CCN(C(=O)c3ccc(O[C@H]4CCNC4)c(C4CCCCC4)c3)CC2)c1 | > 100 µM | > 84 µM
11 | CC(C)C(=O)N1CCC(c2cc(C(=O)N3CCC(Oc4cc(F)cc(N5CCNCC5)c4)CC3)ccc2O[C@H]2CCNC2)CC1 | 35 µM | 31 µM
12 | CC(O)C(=O)N1CCC(c2cc(C(=O)N3CCC(Oc4cc(F)cc(N5CCNCC5)c4)CC3)ccc2O[C@H]2CCNC2)CC1 (stereo partly specified) | 37 µM | 34 µM
13 | CC(C)(C)C1CCC(c2cc(C(=O)N3CCC(Oc4cc(N5CCNCC5)cc(C(F)(F)F)c4)CC3)ccc2O[C@H]2CCNC2)CC1 (stereo partly specified) | 4.3 µM | 3.6 µM
14 | O=C(c1ccc(O[C@H]2CCNC2)c(-c2ccc3ccsc3c2)c1)N1CCC(Oc2cc(F)cc(N3CCNCC3)c2)CC1 | 4.5 µM | 4 µM
15 | O=C(c1ccc(O[C@H]2CCNC2)c(C2CCC(C(F)(F)F)CC2)c1)N1CCC(Oc2cc(F)cc(N3CCNCC3)c2)CC1 (mixture of isomers) | 20 µM | 13 µM
16 | O=C(c1ccc(O[C@H]2CCNC2)c(C2CCCCC2)c1)N1CCC(Oc2cc(F)cc(N3C[C@H]4CNC[C@H]4C3)c2)CC1 | > 100 µM | > 84 µM
17 | CC(C)(C)C1CCC(c2cc(C(=O)N3CCC(Oc4cc(C#N)cc(N5CCNCC5)c4)CC3)ccc2O[C@H]2CCNC2)CC1 (mixture of isomers) | 5.2 µM | 4.4 µM
18 | CC(C)(C)C1CCC(c2cc(C(=O)N3CCC(Oc4cc(F)cc(N5CCNCC5)c4)CC3)ccc2O[C@H]2CCNC2)CC1 (mixture of isomers) | 3.6 µM | 3.2 µM
19 | CC(C)(C)C1CCC(c2cc(C(=O)N3CCC(Oc4cccc(N5CCNCC5)c4)CC3)ccc2O[C@H]2CCNC2)CC1 (mixture of isomers) | 20 µM | 17 µM

Row | SMILES | IC50 [1] | Ki [2]
20 | O=C(c1ccc(O[C@H]2CCNC2)c(-c2ccccc2)c1)N1CCC(Oc2cc(F)cc(N3CCNCC3)c2)CC1 | 47 µM | 42 µM
21 | O=C(c1ccc(O[C@H]2CCNC2)c(-c2ccc(C(F)(F)F)cc2)c1)N1CCC(Oc2cc(F)cc(N3CCNCC3)c2)CC1 | 18 µM | 16 µM
22 | NCCC(=O)Nc1cc(F)cc(OC2CCN(C(=O)c3ccc(O[C@H]4CCNC4)c(C4CCCCC4)c3)CC2)c1 | 69 µM | 62 µM
23 | CC(C)(C)C1CCC(c2cc(C(=O)N3CCC(Oc4cc(N5CCNCC5)ccc4C(N)=O)CC3)ccc2O[C@H]2CCNC2)CC1 (mixture of isomers) | 20 µM | 16 µM
24 | CC(C)(C)C1CCC(c2cc(C(=O)N3CCC(Oc4cc(N5CCNCC5)ccc4C#N)CC3)ccc2O[C@H]2CCNC2)CC1 (mixture of isomers; 44) | 3.3 µM | 2.7 µM
25 | O=C(c1ccc(O[C@H]2CCNC2)c(C2CCCCC2)c1)N1CCC(Oc2cc(F)cc(N3CCNCC3=O)c2)CC1 | > 100 µM | > 84 µM
26 | O=C(c1ccc(O[C@H]2CCNC2)c(C2CCOCC2)c1)N1CCC(Oc2cc(F)cc(N3CCNCC3)c2)CC1 | > 100 µM | > 84 µM
27 | O=C(c1ccc(O[C@@H]2CCNC2)c(C2CCCCC2)c1)N1CCC(Oc2cc(F)cc(N3CCNCC3)c2)CC1 | 64 µM | 52 µM
28 | O=C(c1ccc(OC2CCNCC2)c(C2CCCCC2)c1)N1CCC(Oc2cc(F)cc(N3CCNCC3)c2)CC1 | > 100 µM | > 84 µM
29 | O=C(c1ccc(O[C@H]2CCNC2)c(C2CCCCC2)c1)N1CCC(Oc2cc(F)cc(N3CC4(CCNCC4)C3)c2)CC1 | > 100 µM | > 84 µM
30 | O=C(c1ccc(O[C@H]2CCNC2)c(-c2ccc3nc[nH]c3c2)c1)N1CCC(Oc2cc(F)cc(N3CCNCC3)c2)CC1 | 48 µM | 43 µM
31 | O=C(c1ccc(O[C@H]2CCNC2)c(-c2ccc3ccccc3c2)c1)N1CCC(Oc2cc(F)cc(N3CCNCC3)c2)CC1 | 4.6 µM | 4.1 µM
32 | CN(C)C(=O)c1ccc(N2CCNCC2)cc1OC1CCN(C(=O)c2ccc(O[C@H]3CCNC3)c(C3CCC(C(C)(C)C)CC3)c2)CC1 (mixture of isomers) | > 100 µM | > 84 µM
33 | CC(C)(C)C1CCC(c2cc(C(=O)N3CCC(Oc4cc(N5CCNCC5)ccc4Cl)CC3)ccc2O[C@H]2CCNC2)CC1 (mixture of isomers) | 2.7 µM | 2.2 µM
34 | COC(=O)c1ccc(N2CCNCC2)cc1OC1CCN(C(=O)c2ccc(O[C@H]3CCNC3)c(C3CCC(C(C)(C)C)CC3)c2)CC1 (mixture of isomers) | 17 µM | 14 µM
35 | O=C(c1ccc(O[C@H]2CCNC2)c(C2CCCCC2)c1)N1CCC(Oc2cc(F)cc(N3CCNCC3)c2)CC1 | 57 µM | 46 µM
36 | CC(C)(C)C1CCC(c2cc(C(=O)N3CCC(Oc4cc(Cl)cc(N5CCNCC5)c4)CC3)ccc2O[C@H]2CCNC2)CC1 (mixture of isomers) | 4.3 µM | 3.6 µM
37 | O=C(c1ccc(O[C@H]2CCNC2)c(-c2ccc3[nH]ncc3c2)c1)N1CCC(Oc2cc(F)cc(N3CCNCC3)c2)CC1 | 8.8 µM | 7.9 µM
38 | NCCC(=O)NCc1cc(F)cc(OC2CCN(C(=O)c3ccc(O[C@H]4CCNC4)c(C4CCCCC4)c3)CC2)c1 | > 100 µM | > 84 µM
